Earlier results in PMC2217447 (The Journal of General Physiology, 2004).
“Also recorded” adds a separate entry of the source. Read-outs that look alike come from different tables or passages of the source.

Columns and labels:
[1] = molecular target: T1, Shaker B K^+ channels (Drosophila melanogaster, UniProt P08510); conditions: external TEA, ref Gómez-Lagunas, 1997
[2] = molecular target: T1, Shaker B K^+ channels; conditions: for effect of external K^+ on block of Shaker (in words): ref Goldstein and Miller, 1993

T1 sequence (P08510 whole entry): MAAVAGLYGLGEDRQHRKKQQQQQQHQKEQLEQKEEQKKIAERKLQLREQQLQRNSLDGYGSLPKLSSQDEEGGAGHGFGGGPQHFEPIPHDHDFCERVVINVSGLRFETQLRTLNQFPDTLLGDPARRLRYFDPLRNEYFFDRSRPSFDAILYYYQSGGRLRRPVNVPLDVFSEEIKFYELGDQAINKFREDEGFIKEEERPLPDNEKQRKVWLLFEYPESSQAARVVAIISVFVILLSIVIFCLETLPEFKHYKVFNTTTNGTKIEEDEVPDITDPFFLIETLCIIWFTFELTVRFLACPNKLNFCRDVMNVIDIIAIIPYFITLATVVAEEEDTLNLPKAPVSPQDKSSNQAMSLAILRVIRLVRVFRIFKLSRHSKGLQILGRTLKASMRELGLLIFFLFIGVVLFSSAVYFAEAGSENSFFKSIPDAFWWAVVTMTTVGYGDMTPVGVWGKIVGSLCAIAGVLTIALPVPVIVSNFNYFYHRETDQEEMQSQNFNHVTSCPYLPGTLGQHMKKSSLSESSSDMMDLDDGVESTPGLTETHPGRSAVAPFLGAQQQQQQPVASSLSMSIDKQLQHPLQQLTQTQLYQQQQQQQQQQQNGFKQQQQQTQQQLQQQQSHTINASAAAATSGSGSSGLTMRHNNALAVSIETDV

## CC[N+](CC)(CC)CC [TEAo, tetraethylammonium]
[1]; Shaker channels
  change of binding affinity in 0 K^+ (in words): did not find a significant change in the binding affinity
[1]
  affinity (Kd) for inhibiting drop of GK vs block of IK (in words): basically the same affinity (Kd) with which it blocks the K^+ current (IK)
  effect on collapse of GK in 0 K^+ (in words): impedes the drop of GK in 0 K^+; also recorded: impedes the collapse of GK
[1]; listed as TEA
  effect on collapse of GK in 0 K^+ (in words): the collapse of GK is prevented

## Agitoxin2 [AgTx2]
[2]; ref Ranganathan et al., 1996
  effect of external K^+ on binding to Shaker (in words): destabilized by Ko ^+ ions

## ChTx R25Q: mutant R25Q (a glutamine substituting arginine in position 25) of ChTx
[2]
  effect of external K^+ on block of Shaker (in words): destabilized by Ko ^+ ions; also recorded: decreased by Ko ^+

## Charybdotoxin [ChTx]
[2]
  effect of external K^+ on block of Shaker (in words): not altered by external K^+ ions; also recorded: not destabilized by Ko ^+
